Assay results published in US20250326748A1, “COMPOUNDS AND METHODS FOR MODULATING SPLICING” (REMIX THERAPEUTICS INC., priority 2022, published 2025).
Counter-ions that a name gives are not always drawn. Like-named read-outs stand apart in the source and are kept apart here.

Key:
MYB mRNA = test: Splicing RT-qPCR assay, MYB canonical (CJ) and alternative (AJ) junction mRNA; format: cell-based, human; details: Homo sapiens; for IC50: canonical junction mRNA; for AC50: alternative junction mRNA, read-out: MYB AJ (AC50, increase in AJ mRNA)
Method in brief: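 One-step RT-qPCR on cell lysates quantified CJ and AJ isoforms, normalized to PPIA for A673 or GAPDH/GUSB for K562. Cells were exposed for 24 h at 37° C to 11 concentrations in 3-fold steps up to 10 uM, with DMSO ≤0.25%. A673 were grown in DMEM and K562 in IMDM, both with 10% FBS.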

K562 cells = test: Cell viability, Cell Titer Glo 2.0 assay, K562; details: 72 hours
[1] = qPCR panel, read-out: MYB CJ (decrease in CJ mRNA levels, IC50)
[2] = RT-qPCR, A673 or K562 cells, 24 hours treatment
[3] = RT-qPCR, A673 or K562 cells, 24 hours treatment, read-out: MYB CJ (IC50, decrease in CJ mRNA)

SMILES | IC50 (MYB mRNA; [1]) [nM] | AC50 (MYB mRNA; [2]) [nM] | IC50 (MYB mRNA; [3]) [nM] | Effect on Cell Viability, K562 (K562 cells)
CN[C@H]1CN(c2cnc3nc(-c4cc5cn(C)nc5c(C)c4O)ccc3c2)C[C@H]1F [Compound 129, 5-{6-[(3R,4S)-3-fluoro-4-(methylamino)pyrrolidin-1-yl]-1,8-naphthyridin-2-yl}-2,7-dimethylindazol-6-ol] | 100 to 1000 | 100 to 1000 | 100 to 1000 | B (100-1000 nM)
Cc1c(O)c(-c2cc(Cl)c3cc(N4C[C@@H](C)N[C@@H](C)C4)cnc3n2)cc2cn(C)nc12 [Compound 149] | < 100 | < 100 | < 100 | B (100-1000 nM)
Cc1c(O)c(-c2cc(C3CC3)c3cc(N4CCNCC4)cnc3n2)cc2cn(C)nc12 [Compound 144, 5-(4-cyclopropyl-6-(piperazin-1-yl)-1,8-naphthyridin-2-yl)-2,7-dimethyl-2H-indazol-6-ol bis(2,2,2-trifluoroacetate)] | 100 to 1000 | 100 to 1000 | 100 to 1000 | –
Cc1cn2nc(-c3cc(Cl)c4cc(N5C[C@@H](C)N[C@@H](C)C5)cnc4n3)cc(C)c2n1 [Compound 335, 4-chloro-2-{2,8-dimethylimidazo[1,2-b]478pyridazine-6-yl}-6-[(3R,5S)-3,5-dimethylpiperazin-1-yl]-1,8-naphthyridine] | 100 to 1000 | 100 to 1000 | 100 to 1000 | B (100-1000 nM)
CN[C@@H]1CN(c2cnc3nc(-c4cc5cn(C)nc5c(C)c4O)ccc3c2)C[C@H]1F (single isomer, unassigned) [Compound 130] | < 100 | < 100 | < 100 | B (100-1000 nM)
CN[C@@H]1CCN(c2cnc3nc(-c4cc5cn(C)nc5c(C)c4O)ccc3c2)C1 [Compound 112] | < 100 | < 100 | < 100 | B (100-1000 nM)
CCN[C@@H]1CCN(c2cnc3nc(-c4cc5cn(C)nc5c(C)c4O)ccc3c2)C1 [Compound 124] | < 100 | < 100 | < 100 | A (<100 nM)
CN[C@@H]1CCN(c2cnc3nc(-c4cc5cn(C)nc5c(C)c4O)cc(Cl)c3c2)C1 [Compound 286, 5-{4-chloro-6-[(3R)-3-(methylamino)pyrrolidin-1-yl]-1,8-naphthyridin-2-yl}-2,7-dimethylindazol-6-ol hydrochloride] | < 100 | < 100 | < 100 | A (<100 nM)
CN[C@@H]1CCN(c2cnc3nc(-c4cc(C)c5nc(C)cn5n4)cc(Cl)c3c2)C1 [Compound 341] | < 100 | < 100 | < 100 | A (<100 nM)
CN[C@H]1CN(c2cnc3nc(-c4cc5cn(C)nc5c(C)c4O)ccc3c2)C[C@H]1C [Compound 125, 2,7-dimethyl-5-{6-[(3R,4R)-3-methyl-4-(methylamino)379pyrrolidine-1-yl]-1,8-naphthyridin-2-yl}indazol-6-ol] | < 100 | < 100 | < 100 | A (<100 nM)
CN[C@@H]1CN(c2cnc3nc(-c4cc5cn(C)nc5c(C)c4O)ccc3c2)C[C@@H]1C [Compound 128] | < 100 | 100 to 1000 | < 100 | A (<100 nM)
CCN[C@H]1CCN(c2cnc3nc(-c4cc5cn(C)nc5c(C)c4O)ccc3c2)C1 [Compound 123] | < 100 | < 100 | < 100 | –
CN(c1cnc2nc(-c3cc4cn(C)nc4c(F)c3O)ccc2c1)C1CCNCC1 [Compound 284] | 100 to 1000 | 100 to 1000 | 100 to 1000 | –
Cc1cc(-c2cc3cn(C)nc3c(C)c2O)nc2ncc(N3CCNCC3)cc12 [Compound 151, 2,7-dimethyl-5-[4-methyl-6-(piperazin-1-yl)-1,8-naphthyridin-2-yl]indazol-6-ol] | < 100 | < 100 | < 100 | –
